# Data as given in paper PMC7766225, “Structure-Based Discovery and Bioactivity Evaluation of Novel Aurora-A Kinase Inhibitors as Anticancer Agents via Docking-Based Comparative Intermolecular Contacts Analysis (dbCICA)” (Molecules, 2020).
# “And” between values parts separate entries of the source, which are not always exact repeats. Equal entries are not always repeated. Where two headings read alike, the source gives them in different places.
# Columns and labels:
# [1] = test system: Fibroblasts; assay: MTT cytotoxicity assay on normal fibroblasts (safety index); format: cell-based; details: Homo sapiens, Fibroblast, 72 h
# Method: (§1) The human cell-lines triple negative breast adenocarcinoma MDA-MB-231, Pancreas adenocarcinoma PANC1, ductal breast carcinoma T-47D and fibroblasts were preserved and expanded in DMEM medium, while the prostate adenocarcinoma PC-3 cells were cultured in RPMI-1640 growth medium. All growth media were supplemented with 10% heat-inactivated fetal bovine serum (FBS). Cells were maintained under standard culture conditions at 37 °C, 5% CO2 in a humidified incubator. At 80% confluency, cells were washed with 5 mL phosphate buffer saline (1X PBS), then incubated for 4 min with 2–3 mL Trypsin-EDTA 0.25% in order to obtain suspended cells and collect them in a known volume of fresh media for cell count. Cells were counted using conventional hemocytometer and trypan blue dye method.
# (§2) The five potent hits that have shown anti-Aurora-A Kinase inhibition percentages above 51% at 10 μM upon conducting the kinase enzyme Inhibition assay (Table 5) were further validated using MTT cytotoxicity Assay. This assay includes 3-(4,5-Dimethylthiazol-2-yl)-2,5-diphenyl tetrazolium bromide (MTT) dye, which is a yellowish tetrazole reduced by viable cells into formazan purple color, which detects the normal mitochondrial role in viable cells. In 96-well coated flat bottom microplates, 100 μL cell suspension of PANC1 or T-47D cells were seeded at a density of 7000 cell/well, and 6000 cell/well for MDA-MB-231, PC-3, or fibroblasts, and incubated under the same conditions at 37 °C. After 24 h, each well was treated with the intended drug concentration diluted in 200 μL fresh media after removal of the old 100-μL media. After 72 h incubation, drug-containing media was aspirated and on each well 100 μL phenol-red free media and 15-μL MTT solution (5 mg/mL (wt/vol) PBS). After 3 h of dark incubation at 37 °C, MTT and media were carefully withdrawn from each well, and 200 μL/well DMSO were added. Colorimetric absorbance (OD) was measured at 570 nm wavelength using 96-well plate reader (Tecan-Sunrise, Männedorf, Switzerland).
# (§3) The five compounds were prepared in a stock concentrate of 10 mM using cell culture grade DMSO to be utilized in MTT assay. The cytotoxicity of each compound was initially screened on cancer cell-lines at two concentrations: 50 μM and 25 μM in duplicates. […] The safety index for the compounds with specified IC50 values was evaluated via determining their IC50 values against normal Fibroblast cells. It is noteworthy to mention that DMSO concentration was constant on all the wells (i.e., (0.5% v/v or 1 μL/200 μL) per well), for the treated and the control ones. IC50 values were calculated using nonlinear regression of the dose–response curves using GraphPad Prism software 7.03.
# [2] = target: T1, Aurora-A kinase (Homo sapiens, UniProt O14965); assay: FRET-based Z'-LYTE kinase enzyme inhibition assay; format: biochemical; details: for IC50: nonlinear regression; for Hill Slope: dose-response curve, GraphPad Prism; for inhibition at 10 µM: read-out: % Inhibition at 10 µM
# T1 construct: purchased Invitrogen (Carlsbad, CA, USA)
# T1 sequence (O14965 1-403): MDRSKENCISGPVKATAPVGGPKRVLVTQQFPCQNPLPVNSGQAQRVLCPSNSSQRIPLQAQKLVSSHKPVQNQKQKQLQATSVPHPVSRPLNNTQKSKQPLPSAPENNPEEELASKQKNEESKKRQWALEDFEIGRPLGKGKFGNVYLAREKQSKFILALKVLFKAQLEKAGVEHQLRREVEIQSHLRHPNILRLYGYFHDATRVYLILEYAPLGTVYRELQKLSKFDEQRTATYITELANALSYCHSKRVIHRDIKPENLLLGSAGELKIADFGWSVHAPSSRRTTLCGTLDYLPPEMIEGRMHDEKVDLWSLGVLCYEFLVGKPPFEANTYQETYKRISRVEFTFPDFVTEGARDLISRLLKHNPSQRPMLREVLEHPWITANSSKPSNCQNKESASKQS
# Method: This bioassay was conducted using Z′-LYTE® kinase assay (Invitrogen, Carlsbad, CA, USA) [68, 69]. This biochemical assay depends on fluorescence emission as detection method utilizing a synthetic fluorescence resonance energy transfer (FRET) peptide with two fluorophores: coumarin that work as donor and fluorescein as acceptor [69]. Each hit or compound was dissolved in DMSO to form 10 mM stock solution. Hits were screened at 10 μM concentration. The bioassay was performed in black 384-well plate. For each assay, 100 nL of tested compound stock solution (10 mM) was mixed with 2.4 μL kinase buffer, 5 μL (peptide substrate/Aurora-A Kinase) mixture, and 2.5 μL ATP solution.
# The tests were conducted in duplicates.
# [3] = test system: T-47D cells; assay: MTT cytotoxicity/anti-proliferation assay, T-47D; format: cell-based; details: Homo sapiens, T47D, 72 h
# Method: as §1, §2, §3
# [4] = test system: PANC1 cells; assay: MTT cytotoxicity/anti-proliferation assay, PANC1; format: cell-based, human; details: for IC50: Panc1, 72 h; for inhibition at 25 µM / inhibition at 50 µM: PANC-1, 72 h; for inhibition at 25 µM: Panc1, 25 µM; for inhibition at 50 µM: Panc1, 50 µM
# Method: as §1, §2, §3
# [5] = test system: PANC1, PC-3, T-47D and MDA-MB-231 cancer cells; assay: MTT anti-proliferative assay, four cancer cell lines together; format: cell-based; details: Homo sapiens; 72 h of incubation; read-out: IC50 values against PANC1, PC-3, T-47D and MDA-MB-231 (range over cell lines)
# Method: The human cell-lines triple negative breast adenocarcinoma MDA-MB-231, Pancreas adenocarcinoma PANC1, ductal breast carcinoma T-47D and fibroblasts were preserved and expanded in DMEM medium, while the prostate adenocarcinoma PC-3 cells were cultured in RPMI-1640 growth medium. All growth media were supplemented with 10% heat-inactivated fetal bovine serum (FBS). Cells were maintained under standard culture conditions at 37 °C, 5% CO2 in a humidified incubator. […] Cells were counted using conventional hemocytometer and trypan blue dye method. […] In 96-well coated flat bottom microplates, 100 μL cell suspension of PANC1 or T-47D cells were seeded at a density of 7000 cell/well, and 6000 cell/well for MDA-MB-231, PC-3, or fibroblasts, and incubated under the same conditions at 37 °C. After 24 h, each well was treated with the intended drug concentration diluted in 200 μL fresh media after removal of the old 100-μL media. […] Colorimetric absorbance (OD) was measured at 570 nm wavelength using 96-well plate reader (Tecan-Sunrise, Männedorf, Switzerland). […] The safety index for the compounds with specified IC50 values was evaluated via determining their IC50 values against normal Fibroblast cells. […] IC50 values were calculated using nonlinear regression of the dose–response curves using GraphPad Prism software 7.03.
# [6] = test system: MDA-MB-231 cells; assay: MTT cytotoxicity/anti-proliferation assay, MDA-MB-231; format: cell-based, human; details: for IC50: MDA-MB-231, 72 h; for inhibition at 25 µM: MDA-MB-231, 25 µM; for inhibition at 25 µM / inhibition at 50 µM: 72 h; for inhibition at 50 µM: MDA-MB-231, 50 µM
# Method: as §1, §2, §3
# [7] = test system: PC-3 cells; assay: MTT cytotoxicity/anti-proliferation assay, PC-3; format: cell-based; details: Homo sapiens; for IC50: PC-3, 72 h; for inhibition at 25 µM: PC-3, 25 µM; for inhibition at 25 µM / inhibition at 50 µM: 72 h; for inhibition at 50 µM: PC-3, 50 µM
# Method: as §1, §2, §3
# [8] = test system: xenograft models of various cancer types; parameters: method as in PMID 19369091, PMID 14981513, PMID 18160664; details: cited from earlier work
Compound,Hill Slope [2],"inhibition at 10 µM ([2]; 10 µM, duplicates, Z'-LYTE) [%]",inhibition at 25 µM [1] [%],inhibition at 50 µM [1] [%],IC50 [1] [µM],"IC50 ([2]; IC50, 0.1–100 μM, duplicates)",inhibition at 10 µM [2] [%],inhibition at 25 µM [3] [%],inhibition at 50 µM [3] [%],IC50 [3] [µM],"IC50 ([4]; Homo sapiens, PANC-1, 72 h) [µM]",inhibition at 25 µM ([4]; Homo sapiens) [%],inhibition at 50 µM ([4]; Homo sapiens) [%],IC50 ([6]; Homo sapiens) [µM],inhibition at 25 µM ([6]; Homo sapiens) [%],inhibition at 50 µM ([6]; Homo sapiens) [%],IC50 [7] [µM],inhibition at 25 µM [7] [%],inhibition at 50 µM [7] [%],further results
COc1ccc(C(=O)C2=NON3O[C@@]23C(=O)c2ccc(OC)cc2)cc1 (stereo partly drawn) [Hit 85],1.70,,45.4 ± 0.05,83.4 ± 0.01,27.5 ± 1.5,4.29 µM and 4.3 µM,56,84.6 ± 0.002,86 ± 0.002,8.8 ± 0.74,3.5,92.97 ± 0.004,94.1 ± 0.001,11 ± 0.43,82.3 ± 0.006,87.7 ± 0.001,8.2 ± 1.4,77 ± 0.007,87.3 ± 0.003,IC50 [4]: 3.54 ± 0.11 µM; IC50 [5]: 3.5 to 11 µM
Cc1cc(O)c(/N=N/c2ccc(C(=O)O)cc2)cc1C [Hit 88],1.77,75,,,,,,26.5 ± 0.01,34.9 ± 0.013,> 50,> 50,11.3 ± 0.01,15.1 ± 0.006,> 50,21.1 ± 0.05,31.3 ± 0.06,,,,"IC50 ([2]; 0.1–100 μM, duplicates, read-out: IC50): 2.6 µM and 2.61 µM"
CCCC1N(Cc2ccc(OC)cc2)CCN1Cc1ccc(OC)cc1 [Hit 130],7.6,,,,,5.89 µM and 5.9 µM,86,25.5 ± 0.016,31.3 ± 0.008,> 50,> 50,20.3 ± 0.012,34.9 ± 0.017,> 50,22.9 ± 0.02,45.5 ± 0.05,,,,
"Cc1cc(Nc2cc(N3CCN(C)CC3)nc(Sc3ccc(NC(=O)C4CC4)cc3)n2)[nH]n1 [Tozasertib/(VX-680), Tozasertib, reference compound]",,,85 ± 0.006,89 ± 0.005,9.2 ± 0.6,,,53.4 ± 0.02,80.9 ± 0.01,17.9 ± 1.64,~7.6,80.9 ± 0.005,89.3 ± 0.015,~7.6,81 ± 0.008,87 ± 0.007,21.4 ± 1.6,49.5 ± 0.006,68.7 ± 0.011,reduced the tumor size [8]: 22–98%; IC50 [6]: 7.7 ± 0.65 µM

# The next lines start with results.
Hill Slope [2],"inhibition at 10 µM ([2]; 10 µM, duplicates, Z'-LYTE) [%]",Compound,inhibition at 25 µM [1] [%],inhibition at 50 µM [1] [%],IC50 [1] [µM],"IC50 ([2]; IC50, 0.1–100 μM, duplicates)",inhibition at 10 µM [2] [%],inhibition at 25 µM [3] [%],inhibition at 50 µM [3] [%],IC50 [3] [µM],"IC50 ([4]; Homo sapiens, PANC-1, 72 h) [µM]",inhibition at 25 µM ([4]; Homo sapiens) [%],inhibition at 50 µM ([4]; Homo sapiens) [%],IC50 ([6]; Homo sapiens) [µM],inhibition at 25 µM ([6]; Homo sapiens) [%],inhibition at 50 µM ([6]; Homo sapiens) [%],IC50 [7] [µM],inhibition at 25 µM [7] [%],inhibition at 50 µM [7] [%],further results
,55,COc1cc(/C=N/c2ccc3ccccc3c2)ccc1O [Hit 112],53.9 ± 0.018,54.3 ± 0.003,15.1 ± 3,,,34.7 ± 0.012,48.11 ± 0.003,> 50,> 50,16 ± 0.02,22.5 ± 0.012,17.9 ± 1.4,63.3 ± 0.021,74.7 ± 0.012,> 50,19.2,32.7,
,51,O=C(O)c1ccc(Nc2ccnc3cc(Cl)ccc23)cc1O [Hit 141],,,,,,21.11 ± 0.01,25.04 ± 0.02,> 50,> 50,11.4 ± 0.003,15.7 ± 0.02,> 50,2.9 ± 0.03,11.1 ± 0.05,,,,
